Source: the NIST ThermoML archive (doi:10.1021/je900503p)
Where “and” joins values, the source holds several entries; their conditions need not be identical. Equal entries are not always repeated. ± gives the expanded uncertainty stated by the source.

Legend:
[1] = 101 kPa, Liquid
[2] = relative permittivity at zero frequency (dimensionless); details: 101 kPa, Liquid, Dekameter
[3] = refractive index (Na D-line) (dimensionless); details: 101.33 kPa, Liquid

CCCCO [butan-1-ol]
mass density ([1]; 293.15 K): 809.52 ± 0.43 kg/m3 | mass density ([1]; 298.15 K): 805.58 ± 0.43 kg/m3 | mass density ([1]; 303.15 K): 801.92 ± 0.44 kg/m3 | mass density ([1]; 313.15 K): 794.26 ± 0.45 kg/m3 | relative permittivity at zero frequency ([2]; 293.15 K): 18.26 ± 0.06 | relative permittivity at zero frequency ([2]; 298.15 K): 17.54 ± 0.06 | relative permittivity at zero frequency ([2]; 303.15 K): 16.89 ± 0.06 | relative permittivity at zero frequency ([2]; 313.15 K): 15.45 ± 0.06 | refractive index ([3]; 293.15 K): 1.3992 ± 0.0012 | refractive index ([3]; 298.15 K): 1.3972 ± 0.0012 | refractive index ([3]; 303.15 K): 1.3963 ± 0.0012 | refractive index ([3]; 313.15 K): 1.392 ± 0.0012

O=C1CCCO1 [γ-butyrolactone]
mass density ([1]; 293.15 K): 1128.79 ± 0.58 kg/m3 | mass density ([1]; 298.15 K): 1123.75 ± 0.57 kg/m3 | mass density ([1]; 303.15 K): 1118.79 ± 0.56 kg/m3 | mass density ([1]; 313.15 K): 1121.76 ± 0.56 kg/m3 and 1108.88 ± 0.54 kg/m3 | relative permittivity at zero frequency ([2]; 293.15 K): 42.34 ± 0.06 and 42.81 ± 0.06 | relative permittivity at zero frequency ([2]; 298.15 K): 41.64 ± 0.06 | relative permittivity at zero frequency ([2]; 303.15 K): 41.1 ± 0.06 | relative permittivity at zero frequency ([2]; 313.15 K): 39.92 ± 0.06 | refractive index ([3]; 293.15 K): 1.437 ± 0.0013 | refractive index ([3]; 298.15 K): 1.4356 ± 0.0013 | refractive index ([3]; 303.15 K): 1.4334 ± 0.0013 | refractive index ([3]; 313.15 K): 1.429 ± 0.0013

CCC(C)O (stereo unspecified) [butan-2-ol]
mass density ([1]; 293.15 K): 805.54 ± 0.46 kg/m3 | mass density ([1]; 298.15 K): 802.06 ± 0.47 kg/m3 | mass density ([1]; 303.15 K): 798.45 ± 0.47 kg/m3 | mass density ([1]; 313.15 K): 790.07 ± 0.48 kg/m3 | relative permittivity at zero frequency ([2]; 293.15 K): 17.51 ± 0.06 | relative permittivity at zero frequency ([2]; 298.15 K): 16.58 ± 0.06 | relative permittivity at zero frequency ([2]; 303.15 K): 15.75 ± 0.06 | relative permittivity at zero frequency ([2]; 313.15 K): 14.44 ± 0.06 | refractive index ([3]; 293.15 K): 1.3992 ± 0.0012 | refractive index ([3]; 298.15 K): 1.3954 ± 0.0012 | refractive index ([3]; 303.15 K): 1.3948 ± 0.0012 | refractive index ([3]; 313.15 K): 1.391 ± 0.0012
